Measured values from ChEMBL document CHEMBL1949514, “Design, Synthesis, and Antitumor Activity of 4-Halocolchicines and Their Pro-drugs Activated by Cathepsin B” (ACS Med Chem Lett, 2011).

Legend:
[1] = tested on: A549; assay: Cytotoxicity against human A549 cells after 96 hrs using tetracolor one; type: functional, cell-based; conditions: A549, 96 h
[2] = tested on: HT-29; assay: Cytotoxicity against human HT-29 cells after 96 hrs using tetracolor one; type: functional, cell-based; conditions: HT-29, 96 h
[3] = tested on: HCT-116; assay: Cytotoxicity against human HCT116 cells after 96 hrs using tetracolor one; type: functional, cell-based; conditions: HCT-116, 96 h
[4] = tested on: HCT-116; assay: Antitumor activity against human HCT116 cells xenografted in BALB/c mouse assessed as tumor growth inhibition at 1 mg/kg, ip administered on 1, 3 and 5th day measured on day 21 relative to control; type: functional; conditions: HCT-116, ip, 504 h, route intraperitoneal, read-out: TGI
[5] = tested on: Mus musculus; assay: Toxicity in human HCT116 cells xenografted BALB/c mouse assessed as mortality at 5 mg/kg, ip administered on day 1 to day 5 and day 8 to day 12 measured on day 21; type: organism-based, HCT-116; design: dose 5 mg/kg, route intraperitoneal; conditions: in vivo
[6] = tested on: HCT-116; assay: Antitumor activity against human HCT116 cells xenografted in BALB/c mouse assessed as tumor growth inhibition at 5 mg/kg, ip administered on day 1 to day 5 and day 8 to day 12 measured on day 21 relative to control; type: functional; conditions: HCT-116, ip, route intraperitoneal, read-out: TGI
[7] = tested on: Mus musculus; assay: Toxicity in human HCT116 cells xenografted BALB/c mouse assessed as mortality at 1 mg/kg, ip administered on day 1 to day 5 and day 8 to day 12 measured on day 21; type: organism-based, HCT-116; design: dose 1 mg/kg, route intraperitoneal; conditions: in vivo
[8] = tested on: HCT-116; assay: Antitumor activity against human HCT116 cells xenografted in BALB/c mouse assessed as tumor growth inhibition at […], ip administered on day 1 to day 5 and day 8 to day 12 measured on day 21 relative to control; type: functional; conditions: HCT-116, ip, dose 0.25 mg/kg, route intraperitoneal, read-out: TGI
[9] = tested on: HCT-116; assay: Antitumor activity against human HCT116 cells xenografted in BALB/c mouse assessed as tumor growth inhibition at 1 mg/kg, ip administered on day 1 to day 5 and day 8 to day 12 measured on day 21 relative to control; type: functional; conditions: HCT-116, ip, route intraperitoneal, read-out: TGI
[10] = tested on: Mus musculus; assay: Toxicity in human HCT116 cells xenografted BALB/c mouse assessed as mortality at […], ip administered on day 1 to day 5 and day 8 to day 12 measured on day 21; type: organism-based, HCT-116; design: dose 0.25 mg/kg, route intraperitoneal; conditions: in vivo
[11] = tested on: HUVEC; assay: Cytotoxicity against human HUVEC cells after 96 hrs using tetracolor one; type: ADME, cell-based
[12] = tested on: HUVEC; assay: Selectivity ratio of IC50 for human HUVEC cells to IC50 for human HT-29 cells
[13] = Chemical stability of the compound after 24 hrs by HPLC analysis; type: physicochemical
[14] = Prodrug conversion assessed as (S)-7-Amino-4-fluoro-1,2,3,10-tetramethoxy-6,7-dihydro-5H-benzo[a]heptalen-9-one release at 4 uM in presence of bovine spleen cathepsin-B by HPLC analysis; type: physicochemical; conditions: cattle
[15] = Prodrug conversion assessed as (S)-7-Amino-1,2,3,10-tetramethoxy-6,7-dihydro-5H-benzo[a]heptalen-9-one release at 4 uM in presence of bovine spleen cathepsin-B by HPLC analysis; type: physicochemical; conditions: cattle

Structure (SMILES)	IC50 [1] [nM]	IC50 [2] [nM]	IC50 [3] [nM]	other results
COc1c(I)c2c(c(OC)c1OC)-c1ccc(OC)c(=O)cc1[C@@H](NC(C)=O)CC2	32	6	7	–
COc1cc2c(c(OC)c1OC)-c1ccc(OC)c(=O)cc1[C@@H](NC(C)=O)CC2 [COLCHICINE]	54	8	11	inhibition in vivo at 1 mg/kg [4]: 32.8%
COc1c(O)c2c(c(OC)c1OC)-c1ccc(OC)c(=O)cc1[C@@H](NC(C)=O)CC2	225	484	–	–
COc1c(Br)c2c(c(OC)c1OC)-c1ccc(OC)c(=O)cc1[C@@H](NC(C)=O)CC2	14	6	7	–
COc1c(C=O)c2c(c(OC)c1OC)-c1ccc(OC)c(=O)cc1[C@@H](NC(C)=O)CC2	1010	128	54	–
COc1c(Cl)c2c(c(OC)c1OC)-c1ccc(OC)c(=O)cc1[C@@H](N)CC2	301	250	–	–
COc1c(OC)c2c(c([N+](=O)[O-])c1OC)CC[C@H](NC(C)=O)c1cc(=O)c(OC)ccc1-2	73	31	38	–
COc1c(Cl)c2c(c(OC)c1OC)-c1ccc(OC)c(=O)cc1[C@@H](NC(C)=O)CC2	12	10	9	Activity [5]: Non-toxic; inhibition in vivo at 5 mg/kg [6]: 68.4%
COc1c(F)c2c(c(OC)c1OC)-c1ccc(OC)c(=O)cc1[C@@H](NC(C)=O)CC2	33	7	8	Activity [7]: Non-toxic; inhibition in vivo at […] [8]: 25%; inhibition in vivo at 1 mg/kg [9]: 55.6%; Activity [10]: Non-toxic
COc1c(N)c2c(c(OC)c1OC)-c1ccc(OC)c(=O)cc1[C@@H](NC(C)=O)CC2	2180	1550	–	–
COc1c(F)c2c(c(OC)c1OC)-c1ccc(OC)c(=O)cc1[C@@H](N)CC2	101	80	–	IC50 [11]: 75 nM; Ratio IC50 [12]: 0.9
COc1c(F)c2c(c(OC)c1OC)-c1ccc(OC)c(=O)cc1[C@@H](NC(=O)OCc1ccc(NC(=O)[C@H](CCCCN)NC(=O)[C@H](Cc3ccccc3)NC(=O)OCc3ccccc3)cc1)CC2	–	91	–	IC50 [11]: 151 nM; Stability [13]: Stable; Ratio IC50 [12]: 1.7; Drug metabolism [14]: Active
COc1cc2c(c(OC)c1OC)-c1ccc(OC)c(=O)cc1[C@@H](NC(=O)OCc1ccc(NC(=O)[C@H](CCCCN)NC(=O)[C@H](Cc3ccccc3)NC(=O)OCc3ccccc3)cc1)CC2	–	44	–	IC50 [11]: 75 nM; Stability [13]: Stable; Drug metabolism [15]: Active; Ratio IC50 [12]: 1.7
